Columns and labels:
[1] = biological target: Methionyl-tRNA synthetase (Enterococcus faecalis); experiment: Inhibition of Enterococci faecalis methionyl-tRNA synthetase (EfMetRS)
[2] = biological target: Methionyl-tRNA synthetase (Staphylococcus aureus); experiment: Inhibition of Staphylococcus aureus methionyl-tRNA synthetase (SaMetRS)
[3] = biological target: Methionyl-tRNA synthetase (Staphylococcus aureus); experiment: as above; remark: listed apart in the source

SMILES | IC50 [1] | IC50 [2] | IC50 [3]
NC(=O)[C@H](Cc1ccc(O)cc1)NC(=O)[C@@H]1CCCN1/C=C1\N=C(c2ccc(Cl)cc2Cl)OC1=O [(S)-1-[2-(2,4-Dichloro-phenyl)-5-oxo-oxazol-(4Z)-ylidenemethyl]-pyrrolidine-2-carboxylic acid [(S)-1-carbamoyl-2-(4-hydroxy-phenyl)-ethyl]-amide] | 14000 nM | 680 nM | 
NC(=O)[C@H](Cc1ccc(O)cc1)NC(=O)[C@@H]1CCN1/C=C1\N=C(c2ccc(Br)cc2)OC1=O [(S)-1-[2-(4-Bromo-phenyl)-5-oxo-oxazol-(4Z)-ylidenemethyl]-azetidine-2-carboxylic acid [(S)-1-carbamoyl-2-(4-hydroxy-phenyl)-ethyl]-amide] | 1400 nM | 510 nM | 
CCC/C(=C1/N=C(c2ccc(Br)cc2)OC1=O)N1CC[C@H]1C(=O)N[C@@H](Cc1ccc(O)cc1)C(N)=O [(S)-1-{1-[2-(4-Bromo-phenyl)-5-oxo-oxazol-(4Z)-ylidene]-butyl}-azetidine-2-carboxylic acid [(S)-1-carbamoyl-2-(4-hydroxy-phenyl)-ethyl]-amide] |  | 87 nM | 
CCC/C(=C1/N=C(c2ccc(Br)cc2)OC1=O)N1CCC[C@H]1C(=O)N[C@@H](Cc1ccc(O)cc1)C(N)=O [(S)-1-{1-[2-(4-Bromo-phenyl)-5-oxo-oxazol-(4Z)-ylidene]-butyl}-pyrrolidine-2-carboxylic acid [(S)-1-carbamoyl-2-(4-hydroxy-phenyl)-ethyl]-amide] | 3110 nM |  | 760 nM

Further molecules by falling IC50 [1], results first:

IC50 [1] | IC50 [2] | IC50 [3] | SMILES
48000 nM |  | 1100 nM | NC(=O)[C@H](Cc1ccc(O)cc1)NC(=O)[C@@H]1CCCN1/C=C1\N=C(c2ccc(Br)cc2)OC1=O [(S)-1-[2-(4-Bromo-phenyl)-5-oxo-oxazol-(4Z)-ylidenemethyl]-pyrrolidine-2-carboxylic acid [(S)-1-carbamoyl-2-(4-hydroxy-phenyl)-ethyl]-amide]
5930 nM | 850 nM |  | CC/C(=C1/N=C(c2ccc(Br)cc2)OC1=O)N1CCC[C@H]1C(=O)N[C@@H](Cc1ccc(O)cc1)C(N)=O [(S)-1-{1-[2-(4-Bromo-phenyl)-5-oxo-oxazol-(4Z)-ylidene]-propyl}-pyrrolidine-2-carboxylic acid [(S)-1-carbamoyl-2-(4-hydroxy-phenyl)-ethyl]-amide]

— BindingDB's records for doi:10.1016/j.bmcl.2004.01.094 (Arqule, 2004)
